Patent publication US9586963B2 (GENFIT, priority 2011, dated 2017)

Columns and labels:
[1] = system: diet induced obese mice; conditions: Solt et al; cited from earlier work
[2] = system: Bmal1; conditions: cell culture, dose-dependent; cited from earlier work
[3] = target: T1, Rev-Erb alpha (Homo sapiens, UniProt P20393); conditions: FRET assay; Meng Q J et al., 2008; cited from earlier work
T1 sequence (P20393 1-614): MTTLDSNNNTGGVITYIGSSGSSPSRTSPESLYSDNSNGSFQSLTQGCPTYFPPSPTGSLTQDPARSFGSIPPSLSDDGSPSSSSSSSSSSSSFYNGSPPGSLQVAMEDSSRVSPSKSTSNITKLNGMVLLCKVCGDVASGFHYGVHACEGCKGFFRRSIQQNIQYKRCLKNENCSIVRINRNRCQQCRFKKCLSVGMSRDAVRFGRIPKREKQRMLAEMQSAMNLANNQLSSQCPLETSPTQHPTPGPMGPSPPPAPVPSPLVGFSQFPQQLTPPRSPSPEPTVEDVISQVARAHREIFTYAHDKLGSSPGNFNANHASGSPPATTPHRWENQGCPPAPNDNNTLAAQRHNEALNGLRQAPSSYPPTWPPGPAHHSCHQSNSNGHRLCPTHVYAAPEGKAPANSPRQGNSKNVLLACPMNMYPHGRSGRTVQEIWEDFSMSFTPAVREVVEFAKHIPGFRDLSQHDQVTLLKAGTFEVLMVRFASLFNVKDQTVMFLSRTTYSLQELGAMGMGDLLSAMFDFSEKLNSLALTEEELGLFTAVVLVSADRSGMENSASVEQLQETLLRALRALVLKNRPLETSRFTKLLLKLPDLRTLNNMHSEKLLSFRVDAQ

[4] = system: 3T3-L1 cells; conditions: lipid accumulation and adipogenic genes; cited from earlier work
[5] = high clearance and rapid metabolism; cited from earlier work
[6] = target: T2, Rev-Erb alpha (Homo sapiens, UniProt P20393); test: M2H (mammalian two-hybrid) cellular activation assay of Rev-Erb alpha; format: cell-based; conditions: M2H assay, HEK293 cells, Gal4-Rev-Erb alpha / VP16-NCoR, luciferase reporter
T2 sequence (P20393 284-614 limits assumed): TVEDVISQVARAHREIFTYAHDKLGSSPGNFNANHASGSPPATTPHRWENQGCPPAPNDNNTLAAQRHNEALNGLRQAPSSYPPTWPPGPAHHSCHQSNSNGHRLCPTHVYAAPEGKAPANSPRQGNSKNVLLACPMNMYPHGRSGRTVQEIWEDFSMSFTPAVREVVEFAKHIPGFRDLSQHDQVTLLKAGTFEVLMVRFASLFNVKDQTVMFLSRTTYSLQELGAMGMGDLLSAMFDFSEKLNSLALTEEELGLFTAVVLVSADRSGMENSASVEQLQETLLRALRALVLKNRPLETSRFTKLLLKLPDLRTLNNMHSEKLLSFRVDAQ
Outline: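 Six-point dose-response, 18 h, 37 °C, serum-free, in HEK293 cells carrying a Gal4-RE luciferase reporter with Gal4-Rev-Erb alpha or beta plus VP16-NCoR (corepressor interaction readout). EC50 and TOP activation (%) derived from luminescence across four experiments.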

[7] = target: T3, Rev-Erb beta (Homo sapiens, UniProt Q14995); test: M2H (mammalian two-hybrid) cellular activation assay of Rev-Erb beta; format: cell-based; conditions: HEK293 cells, Gal4-Rev-Erb beta / VP16-NCoR, luciferase reporter
T3 sequence (Q14995 369-579 limits assumed): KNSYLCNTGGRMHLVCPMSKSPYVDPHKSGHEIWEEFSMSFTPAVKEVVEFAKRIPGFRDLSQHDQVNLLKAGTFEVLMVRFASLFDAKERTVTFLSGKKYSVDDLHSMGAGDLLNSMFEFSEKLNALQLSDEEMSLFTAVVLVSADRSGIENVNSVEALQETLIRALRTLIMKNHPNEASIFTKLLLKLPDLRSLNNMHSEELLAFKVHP
Experimental: In this system, Rev-Erb alpha or Rev-Erb beta is expressed as a fusion to the Gal4 DNA-binding domain and the cofactor NCoR is expressed as a fusion to the activation domain of the Herpes Simplex Virus tegument protein VP16. These fusion proteins were included in plasmids at a concentration of 1 μg/μL. The pBS-SK+ vector was added to the preparation to adjust the DNA quantity to a fixed value for each condition.
The transfection mix (Jet-PEI protocol, Polyplus transfection) comprised: • 3 mL of Jet PEI Mix (180 μL Jet-Pei and NaCl at 150 mM) and • 3 mL of the DNA Mix or of the DNA Mix control (wherein the Gal4-Rev-Erb alpha plasmid was replaced by a pGal4phi plasmid).
DNA Mix comprised 1.2 mL of DNA and 1.8 mL of NaCl at 150 mM with, in a T225 flask: • 90 ng of Gal4-Rev-Erb alpha, or 90 ng of Gal4-Rev-Erb beta, • 4500 ng of VP16-NCoR, • 27000 ng of Gal4-RE and • 13410 ng of pBS-SK+. Cells
HEK293 cells were cultured in DMEM (Invitrogen 41965) comprising 10% FBS, P/S, 1% glutamine, 1% pyruvate (Invitrogen 11360) and 1% amino acids (Invitrogen 11140). Cells were then batch co-transfected with plasmid vectors (described in the table above) using as Jet-PEI as reagent (Polyplus) following the protocol specified below.
The 6 mL-transfection mix was transferred in a T225 flask. HEK293 cells were then added at a concentration of 12 Millions of cells for 54 mL of medium (DMEM comprising 10% FBS and 1% P/S). Cells incubated over-night at 37° C. and under 5% CO2.
This cell-based assay is performed using 384-well Greiner white plates (Reference 781080). After the incubation, cells were rinsed with PBS, trypsinized, centrifuged and resuspended in free-serum DMEM without phenol red (Invitrogen 31053). Cells were counted and adjusted to 0.5 Million per mL and plated at a concentration of 10,000 cells in 20 μL per well. They were incubated a minimum of 4 hours at 37° C. under 5% CO2. Cells were treated with 20 μL of the compound to analyze (concentration of 2× diluted in DMEM without FBS containing a maximum of 1% DMSO) and incubated over-night (18 hours, 37° C. and 5% CO2). Each compound has been tested at 6 different concentrations to depict a dose-effect allowing the measure of biochemical parameters such as EC50 and TOP activation (%).
Cells were incubated 30 minutes with 40 μL/well of Steady Glow (Promega) and luminescence was read with TECAN Genios Pro (100 ms/w). Four experiments were carried out for each compound.
Each compound has been tested at 6 different concentrations to depict a dose-effect allowing the measure of biochemical parameters such as EC50 and TOP activation (%).
The mammalian two-hybrid system (M2H) assay consists herein in studying the ability of compounds according to the invention to activate Rev-Erbalpha in cells and thus modulate the interaction with its corepressor. The interaction of the two proteins is assessed with the help of the Luciferase reporter gene. HEK293 cells were transfected with two gene constructions: Gal4-RE VP16-NCoR and Gal4-Rev-Erbalpha or with Gal4-RE, sVP16-NCoR and Gal4-Rev-Erb beta.
The ability of compounds according to the invention of activating Rev-Erbalpha alpha or Rev-Erb beta was assessed in the described cell-based assay. EC50 and TOP activation (%) were measured.

[8] = system: Diet Induced Obesity mice; test: In vivo evaluation in Diet Induced Obesity mice (high fat diet): glycemia, Hb1Ac; design: species or system C57BI/6J mice; conditions: diet induce obese mice, 45 mpk, once daily by gavage, 28 days
Experimental: Four week-old male C57BI/6J mice (from Janvier, France) were fed with an high fat diet (D12492, SSNIFF) for up to 10 weeks. All mice were housed 2 per cage under controlled conditions of humidity, lighting and temperature. At the end of the 10 week of diets, mice were randomized according to their body weight gain, body weight, and their non-fasting glycaemia. The treatments with compound of interest were administered once daily, by gavage (10 mL/kg) for 28 consecutive days. For oral administrations, the drugs were suspended in CMC 1%+Tween 80 0.1%.
As previously described animals were assayed for their non fasting glycaemia and biochemical parameters such as Hb1Ac.
At the end of the treatment period, animals were anesthetized with isoflurane and then sacrificed by cervical dislocation. The Student's t-test was used to test for statistical differences between drug and vehicle treatments when a single dose of drug was used.

| EC50 [6] [nM] | EC50 [7] [nM] | melting point [°C] | Compound | also measured |
| --- | --- | --- | --- | --- |
| 100 to 1000 | 100 to 1000 | 199.1 | CC(C)(C)c1ccc(Oc2ccc3nnc(Cl)n3n2)c(-c2ccccc2)c1 [Cpd.4-19, 6-(5-tert-butyl-biphenyl-2-yloxy)-3-chloro-[1,2,4]triazolo[4,3-b]pyridazine] | – |
| 1000 to 6000 | – | – | FC(F)(F)c1ccc(-c2cncnc2)c(Oc2ccc3nnc(Cl)n3n2)c1 [Cpd.4-99, 3-chloro-6-(2-(pyrimidin-5-yl)-5-(trifluoromethyl)phenoxy)-[1,2,4]triazolo[4,3-b]pyridazine] | Hb1Ac levels [8]: significantly reduced; non fasting blood glucose concentration [8]: significantly reduce |
| < 100 | 100 to 1000 | 147.5 | Cc1cc(Oc2ccc3nnc(Cl)n3n2)c(-c2ccccc2)cc1C [Cpd.4-18, 6-(4,5-dimethyl-biphenyl-2-yloxy)-3-chloro-[1,2,4]triazolo[4,3-b]pyridazine] | – |

Continued, molecule first:

| Compound | EC50 [6] [nM] | EC50 [7] [nM] | melting point [°C] | also measured |
| --- | --- | --- | --- | --- |
| CCCCCNC(=O)N1CCC(CN(Cc2ccc(Cl)cc2)Cc2ccc([N+](=O)[O-])s2)C1 (stereo not shown) [SR9011] | – | – | – | metabolic parameters [1]: improve the metabolic parameters |
| CCOC(=O)N1CCC(CN(Cc2ccc(Cl)cc2)Cc2ccc([N+](=O)[O-])s2)C1 (stereo not shown) [SR9009] | – | – | – | metabolic parameters [1]: improve the metabolic parameters |
| CC(C)(C)OC(=O)CN(Cc1ccc(Cl)cc1)Cc1ccc([N+](=O)[O-])s1 [GSK4112] | – | – | – | Bmal1 expression [2]: decreases Bmal1 expression; interaction of NCoR-derived peptide with Rev-Erb alpha [3]: dose-dependently increasing the interaction; adipogenesis [4]: induces adipogenesis; pharmacokinetic properties [5]: poor pharmacokinetic properties |
| CN(C)c1ccc(Oc2ccc3nnc(Cl)n3n2)c(-c2ccccc2)c1 [Cpd.4-46, 3-chloro-6-(5-dimethylamino-biphenyl-2-yloxy)-[1,2,4]triazolo[4,3-b]pyridazine] | < 100 | 100 to 1000 | 148 to 149 | – |
| CCNc1ccc(Oc2ccc3nnc(Cl)n3n2)c(-c2ccccc2)c1 [Cpd.4-54, 3-chloro-6-(5-ethylamino-biphenyl-2-yloxy)-[1,2,4]triazolo[4,3-b]pyridazine] | 100 to 1000 | 100 to 1000 | 72 to 77 | – |
| CCOC(=O)C1Cc2ccccc2CN1C(=O)c1ccc(SC)s1 (stereo not shown) [SR8278] | – | – | – | pharmacokinetic properties [5]: poor pharmacokinetic properties |
